Data from publication PMC9643649, “Engineering Enzyme Substrate Scope Complementarity for Promiscuous Cascade Synthesis of 1,2‐Amino Alcohols” (Angewandte Chemie (International Ed. in English), 2022).

Molecular target: T1, RgnTDC (Mediterraneibacter gnavus, UniProt A7B1V0)
T1 construct: gene RUMGNA_01526; recombinant, purified; construct details only in the supplement
Assay: decarboxylation turnover assay of purified enzyme
Type: biochemical
Details: native substrate

Structure (SMILES): N[C@@H](Cc1c[nH]c2ccccc12)C(=O)O [Trp]
- decarboxylation turnover assay of purified enzyme: we observed only a slight decrease in activity on Trp and Phe
